Data reported in US20020137929A1, “1 - (3-heterocyclylphenyl) isothiourea, -isourea, -guanidine and -amidine herbicidal agents” (Intellectual Property Department, BASF Aktiengesellschaft, priority 1998, published 2002).

Columns and labels:
[1] = system: CHEAL (Lambsquarters, Common); test: Postemergence herbicidal evaluation; type: in vivo, Chenopodium album
Outline: (§1)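 Herbicidal effect was judged by eye on a 0–9 scale covering stand, vigor, deformity, size and chlorosis, compared with controls, four to five weeks after seedlings about two weeks old were sprayed (40 psi, ~0.0156–0.500 kg/ha).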

CYPIR (Rice Flatsedge) = test: Postemergence weed control under flooded paddy conditions; type: in vivo, Cyperus iria; conditions: postemergence weeds, 3-4 weeks after treatment
Outline: (§2)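 Injury ratings (0–9 scale covering stand, vigor, malformation, size, chlorosis and overall appearance versus control) were made three to four weeks after treatment. Test material, about 0.0313 to 0.500 kg/ha a.i. in 50/50 v/v aqueous/acetone, was added to flood water 1.5 to 3 cm deep over 3 to 5 cm weeds and 1.5 to 2.5 leaf rice.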

AMBEL (Ragweed, Common) = test: Preemergence herbicidal evaluation; type: in vivo, Ambrosia artemisifolia; conditions: rated 4-5 weeks after treatment
Outline: (§3)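 Scores use a 0–9 visual scale covering stand, vigor, malformation, size and chlorosis relative to controls, rated four to five weeks after treatment. Before emergence, soil-planted seeds were sprayed with compound in aqueous acetone at roughly 0.0156–0.500 kg/ha and held in the greenhouse.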

CASOB (Sicklepod) = test: Postemergence herbicidal evaluation; type: in vivo, Cassia obtusifolia
Outline: as §1

[2] = system: GLXMAW (Soybean, Williams); test: Preemergence herbicidal evaluation; type: in vivo, Glycine max, (L.) Merr. cv Williams; conditions: rated 4-5 weeks after treatment
Outline: as §3

SETVI (Foxtail, Green) = test: Preemergence herbicidal evaluation; type: in vivo, Setaria viridis; conditions: rated 4-5 weeks after treatment
Outline: as §3

ORYSAT (Rice, Tebonnet) [3] = test: Postemergence herbicidal evaluation; type: in vivo, Oryza sativa, (L.) Tebonnet
Outline: as §1

CYPSE (Flatsedge) [4] = test: Postemergence weed control under flooded paddy conditions; type: in vivo, Cyperus serotinus; conditions: postemergence weeds, 3-4 weeks after treatment
Outline: as §2

ZEAMX (Corn, Field) = test: Postemergence herbicidal evaluation; type: in vivo, Zea mays
Outline: as §1

GALAP (Galium) = test: Postemergence herbicidal evaluation; type: in vivo, Galium aparine
Outline: as §1

ORYSAT (Rice, Tebonnet) [5] = test: Preemergence herbicidal evaluation; type: in vivo, Oryza sativa, (L.) Tebonnet; conditions: rated 4-5 weeks after treatment
Outline: as §3

CYPSE (Flatsedge) [6] = test: Preemergence weed control under flooded paddy conditions; type: in vivo, Cyperus serotinus; conditions: rated 3-4 weeks after treatment
Outline: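 Silt loam, seeds in top 0.5 cm; flood held 1.5-3 cm; test cpd as acetone/water 50/50 into flood water, ~0.0313-0.500 kg/ha a.i.; greenhouse 3-4 wk; visual 0-9 score vs control.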

[7] = system: SAGPY (Arrowhead (Pygmaea)); test: Postemergence weed control under flooded paddy conditions; type: in vivo, Sagittaria pygmaea; conditions: postemergence weeds, 3-4 weeks after treatment
Outline: as §2

Compound: CCOC(=O)CCN1C(=O)CSC1=Nc1cc(-n2c(=O)cc(C(F)(F)F)n(C)c2=O)c(Cl)cc1Cl [Compound 32, Ethyl 2-{{2,4-dichloro-5-[3,6-dihydro-3-methyl-2,6-dioxo-4-(trifluoromethyl)-1(2H)-pyrimidinyl]-phenyl}imino}-4-oxo-3-thiazolidinepropionate]
- Postemergence herbicidal rating CHEAL ([1]; Rate 0.0158 kg/ha): 3.0
- Postemergence herbicidal rating CHEAL ([1]; Rate 0.0313 kg/ha): 0.0
- Postemergence herbicidal rating CHEAL ([1]; Rate 0.0625 kg/ha): 2.0
- Postemergence herbicidal rating CHEAL ([1]; Rate 0.1250 kg/ha): 6.0
- Herbicidal rating CYPIR (CYPIR (Rice Flatsedge); rate 0.1250 kg/ha): 0.0
- Herbicidal rating CYPIR (CYPIR (Rice Flatsedge); rate 0.2500 kg/ha): 0.0
- Preemergence herbicidal rating AMBEL (AMBEL (Ragweed, Common); rate 0.0156 kg/ha): 0.0
- Preemergence herbicidal rating AMBEL (AMBEL (Ragweed, Common); rate 0.0313 kg/ha): 0.5
- Preemergence herbicidal rating AMBEL (AMBEL (Ragweed, Common); rate 0.0625 kg/ha): 0.5
- Preemergence herbicidal rating AMBEL (AMBEL (Ragweed, Common); rate 0.1250 kg/ha): 0.5
- Preemergence herbicidal rating AMBEL (AMBEL (Ragweed, Common); rate 0.2500 kg/ha): 5.5
- Preemergence herbicidal rating AMBEL (AMBEL (Ragweed, Common); rate 0.5000 kg/ha): 9.0
- Postemergence herbicidal rating CASOB (CASOB (Sicklepod); Rate 0.0158 kg/ha): 0.0
- Postemergence herbicidal rating CASOB (CASOB (Sicklepod); Rate 0.0313 kg/ha): 0.0
- Postemergence herbicidal rating CASOB (CASOB (Sicklepod); Rate 0.0625 kg/ha): 0.0
- Postemergence herbicidal rating CASOB (CASOB (Sicklepod); Rate 0.1250 kg/ha): 3.0
- Preemergence herbicidal rating GLXMAW ([2]; rate 0.0156 kg/ha): 0.0
- Preemergence herbicidal rating GLXMAW ([2]; rate 0.0313 kg/ha): 0.5
- Preemergence herbicidal rating GLXMAW ([2]; rate 0.0625 kg/ha): 0.5
- Preemergence herbicidal rating GLXMAW ([2]; rate 0.1250 kg/ha): 0.5
- Preemergence herbicidal rating GLXMAW ([2]; rate 0.2500 kg/ha): 1.0
- Preemergence herbicidal rating GLXMAW ([2]; rate 0.5000 kg/ha): 3.0
- Preemergence herbicidal rating SETVI (SETVI (Foxtail, Green); rate 0.0156 kg/ha): 0.0
- Preemergence herbicidal rating SETVI (SETVI (Foxtail, Green); rate 0.0313 kg/ha): 0.0
- Preemergence herbicidal rating SETVI (SETVI (Foxtail, Green); rate 0.0625 kg/ha): 0.5
- Preemergence herbicidal rating SETVI (SETVI (Foxtail, Green); rate 0.1250 kg/ha): 3.5
- Preemergence herbicidal rating SETVI (SETVI (Foxtail, Green); rate 0.2500 kg/ha): 9.0
- Preemergence herbicidal rating SETVI (SETVI (Foxtail, Green); rate 0.5000 kg/ha): 9.0
- Postemergence herbicidal rating ORYSAT (ORYSAT (Rice, Tebonnet) [3]; Rate 0.0158 kg/ha): 1.0
- Postemergence herbicidal rating ORYSAT (ORYSAT (Rice, Tebonnet) [3]; Rate 0.0313 kg/ha): 2.0
- Postemergence herbicidal rating ORYSAT (ORYSAT (Rice, Tebonnet) [3]; Rate 0.0625 kg/ha): 3.0
- Postemergence herbicidal rating ORYSAT (ORYSAT (Rice, Tebonnet) [3]; Rate 0.1250 kg/ha): 3.5
- Herbicidal rating CYPSE (CYPSE (Flatsedge) [4]; rate 0.1250 kg/ha): 0.0
- Herbicidal rating CYPSE (CYPSE (Flatsedge) [4]; rate 0.2500 kg/ha): 0.0
- Postemergence herbicidal rating ZEAMX (ZEAMX (Corn, Field); Rate 0.0158 kg/ha): 4.0
- Postemergence herbicidal rating ZEAMX (ZEAMX (Corn, Field); Rate 0.0313 kg/ha): 6.0
- Postemergence herbicidal rating ZEAMX (ZEAMX (Corn, Field); Rate 0.0625 kg/ha): 7.0
- Postemergence herbicidal rating ZEAMX (ZEAMX (Corn, Field); Rate 0.1250 kg/ha): 7.0
- Postemergence herbicidal rating GALAP (GALAP (Galium); Rate 0.0158 kg/ha): 0.0
- Postemergence herbicidal rating GALAP (GALAP (Galium); Rate 0.0313 kg/ha): 0.0
- Postemergence herbicidal rating GALAP (GALAP (Galium); Rate 0.0625 kg/ha): 0.0
- Postemergence herbicidal rating GALAP (GALAP (Galium); Rate 0.1250 kg/ha): 2.0
- Preemergence herbicidal rating ORYSAT (ORYSAT (Rice, Tebonnet) [5]; rate 0.0156 kg/ha): 0.0
- Preemergence herbicidal rating ORYSAT (ORYSAT (Rice, Tebonnet) [5]; rate 0.0313 kg/ha): 0.0
- Preemergence herbicidal rating ORYSAT (ORYSAT (Rice, Tebonnet) [5]; rate 0.0625 kg/ha): 0.0
- Preemergence herbicidal rating ORYSAT (ORYSAT (Rice, Tebonnet) [5]; rate 0.1250 kg/ha): 0.0
- Preemergence herbicidal rating ORYSAT (ORYSAT (Rice, Tebonnet) [5]; rate 0.2500 kg/ha): 1.5
- Preemergence herbicidal rating ORYSAT (ORYSAT (Rice, Tebonnet) [5]; rate 0.5000 kg/ha): 4.0
- Herbicidal rating CYPSE (CYPSE (Flatsedge) [6]; 0.1250 kg/ha): 0.0
- Herbicidal rating CYPSE (CYPSE (Flatsedge) [6]; 0.2500 kg/ha): 0.0
- Herbicidal rating SAGPY ([7]; rate 0.1250 kg/ha): 0.0
- Herbicidal rating SAGPY ([7]; rate 0.2500 kg/ha): 0.0

Compound: CCOP(=O)(CN1C(=O)CSC1=Nc1cc(-n2c(=O)cc(C(F)(F)F)n(C)c2=O)c(F)cc1Cl)OCC [Compound 35, Diethyl {{2-{{2-chloro-5-[3,6-dihydro-3-methyl-2,6-dioxo-4-(trifluoromethyl)-1(2H)-pyrimidinyl]-4-fluorophenyl}imino}-4-oxo-3-thiazolidinyl}methyl}phosphonate]
- Postemergence herbicidal rating CHEAL ([1]; Rate 0.0158 kg/ha): 7.0
- Postemergence herbicidal rating CHEAL ([1]; Rate 0.0315 kg/ha): 9.0
- Postemergence herbicidal rating CHEAL ([1]; Rate 0.0630 kg/ha): 9.0
- Herbicidal rating CYPIR (CYPIR (Rice Flatsedge); rate 0.1250 kg/ha): 0.0
- Herbicidal rating CYPIR (CYPIR (Rice Flatsedge); rate 0.2500 kg/ha): 0.0
- Preemergence herbicidal rating AMBEL (AMBEL (Ragweed, Common); rate 0.0625 kg/ha): 0.0
- Preemergence herbicidal rating AMBEL (AMBEL (Ragweed, Common); rate 0.1250 kg/ha): 3.0
- Preemergence herbicidal rating AMBEL (AMBEL (Ragweed, Common); rate 0.2500 kg/ha): 9.0
- Postemergence herbicidal rating CASOB (CASOB (Sicklepod); Rate 0.0158 kg/ha): 0.0
- Postemergence herbicidal rating CASOB (CASOB (Sicklepod); Rate 0.0315 kg/ha): 3.0
- Postemergence herbicidal rating CASOB (CASOB (Sicklepod); Rate 0.0630 kg/ha): 9.0
- Preemergence herbicidal rating GLXMAW ([2]; rate 0.0625 kg/ha): 0.0
- Preemergence herbicidal rating GLXMAW ([2]; rate 0.1250 kg/ha): 0.0
- Preemergence herbicidal rating GLXMAW ([2]; rate 0.2500 kg/ha): 2.0
- Preemergence herbicidal rating SETVI (SETVI (Foxtail, Green); rate 0.0625 kg/ha): 0.0
- Preemergence herbicidal rating SETVI (SETVI (Foxtail, Green); rate 0.1250 kg/ha): 0.0
- Preemergence herbicidal rating SETVI (SETVI (Foxtail, Green); rate 0.2500 kg/ha): 9.0
- Postemergence herbicidal rating ORYSAT (ORYSAT (Rice, Tebonnet) [3]; Rate 0.0158 kg/ha): 2.0
- Postemergence herbicidal rating ORYSAT (ORYSAT (Rice, Tebonnet) [3]; Rate 0.0315 kg/ha): 3.0
- Postemergence herbicidal rating ORYSAT (ORYSAT (Rice, Tebonnet) [3]; Rate 0.0630 kg/ha): 3.5
- Herbicidal rating CYPSE (CYPSE (Flatsedge) [4]; rate 0.1250 kg/ha): 0.0
- Herbicidal rating CYPSE (CYPSE (Flatsedge) [4]; rate 0.2500 kg/ha): 0.0
- Postemergence herbicidal rating ZEAMX (ZEAMX (Corn, Field); Rate 0.0158 kg/ha): 3.5
- Postemergence herbicidal rating ZEAMX (ZEAMX (Corn, Field); Rate 0.0315 kg/ha): 3.5
- Postemergence herbicidal rating ZEAMX (ZEAMX (Corn, Field); Rate 0.0630 kg/ha): 4.5
- Postemergence herbicidal rating GALAP (GALAP (Galium); Rate 0.0158 kg/ha): 4.0
- Postemergence herbicidal rating GALAP (GALAP (Galium); Rate 0.0315 kg/ha): 5.0
- Postemergence herbicidal rating GALAP (GALAP (Galium); Rate 0.0630 kg/ha): 5.0
- Preemergence herbicidal rating ORYSAT (ORYSAT (Rice, Tebonnet) [5]; rate 0.0625 kg/ha): 0.0
- Preemergence herbicidal rating ORYSAT (ORYSAT (Rice, Tebonnet) [5]; rate 0.1250 kg/ha): 0.0
- Preemergence herbicidal rating ORYSAT (ORYSAT (Rice, Tebonnet) [5]; rate 0.2500 kg/ha): 0.0
- Herbicidal rating CYPSE (CYPSE (Flatsedge) [6]; 0.1250 kg/ha): 0.0
- Herbicidal rating CYPSE (CYPSE (Flatsedge) [6]; 0.2500 kg/ha): 0.0
- Herbicidal rating SAGPY ([7]; rate 0.1250 kg/ha): 0.0
- Herbicidal rating SAGPY ([7]; rate 0.2500 kg/ha): 3.0
